Columns and labels:
[1] = biological target: T1, human TGR5 (hTGR5) receptors (Homo sapiens, UniProt Q8TDU6); test: Agonistic activity towards TGR5 receptors, increase of intracellular cAMP in HEK-293 cells; format: cell-based; conditions: HEK-293 cells expressing hTGR5, read-out: Activity (agonistic activity, EC50 class)
T1 construct: expressed in transfected cells; host or cells: HEK-293
T1 sequence (Q8TDU6 1-330): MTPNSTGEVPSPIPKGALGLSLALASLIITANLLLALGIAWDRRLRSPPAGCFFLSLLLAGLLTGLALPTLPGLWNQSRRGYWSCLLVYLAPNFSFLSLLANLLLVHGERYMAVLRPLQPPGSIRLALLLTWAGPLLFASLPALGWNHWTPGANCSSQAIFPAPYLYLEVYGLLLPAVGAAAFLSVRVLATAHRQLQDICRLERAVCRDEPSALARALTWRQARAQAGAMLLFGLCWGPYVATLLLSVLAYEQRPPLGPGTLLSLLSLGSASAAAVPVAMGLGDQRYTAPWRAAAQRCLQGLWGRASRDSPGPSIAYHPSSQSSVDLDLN
Experimental: Screening of compounds of the general formula 1 was carried out in experiments on cells of HEK-293 line, in which human TGR5 (hTGR5) receptors were expressed. Agonistic activity of compounds was estimated by increasing of intracellular cAMP concentration.

[2] = test system: diabesity mice of db/db line; test: Influence of rectal administration of bile acid GDC on blood glucose level; format: in vivo; conditions: male db/db mice
Experimental: The influence of rectal administration of glycodeoxycholic acid (GDC) on glucose level in blood was studied at diabesity mice of db/db line. Glucose level at male db/db mice (39.5 g) was measured 24 hs before and at the moment of rectal administration, and then in 1, 2, 3, 4, 5, 6, and 24 hs afterwards. […] The gel was prepared on the base of methyl cellulose water solution (1%) and Tween-80 (2%). GDC BA administration in both doses effectively and statistically valid reduced glucose concentration in plasma of diabesity mice of db/db line (on 24%—at 50 mmol and on 20% at 5 mmol).

[3] = test system: diabesity mice of db/db line; test: Influence of rectal BA administration on weight change at diabesity; format: in vivo; conditions: GDC 5 and 50 mmol gel rectally + Sitagliptin 30 mg/kg peroral, weighed 2 days after administration
Experimental: Influence of rectal administration of glycodeoxycholic acid (GDC) on weight change of mice of db/db line at diabesity was investigated. […] The gel was prepared on the base of methyl cellulose water solution (1%) and Tween-80 (2%). The animals were weighted 2 days before the experiment, at the moment of administration and 2 days after administration of compositions.

SMILES | EC50 [1] [µM] | other results
O=C(NC1CCCC1)C1c2cc(C(F)(F)F)ccc2OCCN1Cc1cccc(-c2ccccc2)c1 (stereo not drawn) [Compound 14, 4-(3-pheylbenzyl)-7-trifluoromethyl-2,3,4,5-tetrahydrobenzo[f][1,4]oxazepine-5-carboxylic acid cyclopentylamide] | > 10 | –
CC(C)(C)NC(=O)C1c2cc(F)ccc2OCCN1Cc1ccccc1-c1ccncc1 (stereo not drawn) [Compound 18, 4-[2-(pyridin-4-yl)benzyl]-7-fluoro-2,3,4,5-tetrahydrobenzo[f][1,4]oxazepine-5-carboxylic acid tert-butylamide] | 1 to 10 | –
CC(C)(C)NC(=O)C1c2ccccc2OCC(=O)N1Cc1ccccc1-c1ccncc1 (stereo not drawn) [Compound 90, 4-[2-(pyridin-4-yl)benzyl]-3-oxo-2,3,4,5-tetrahydrobenzo[f][1,4]oxazepine-5-carboxylic acid tert-butylamide] | > 10 | –
Cc1ccc(-c2ccccc2CN2C(=O)COc3ccccc3C2C(=O)NC(C)(C)C)cc1 (stereo not drawn) [Compound 96, 4-[2-(4-methylphenyl)benzyl]-3-oxo-2,3,4,5-tetrahydrobenzo[f][1,4]oxazepine-5-carboxylic acid tert-butylamide] | 1 to 10 | –
Cc1cccc(-c2ccccc2CN2C(=O)COc3ccccc3C2C(=O)NC(C)(C)C)c1 (stereo not drawn) [Compound 97, 4-[2-(3-methylphenyl)benzyl]-3-oxo-2,3,4,5-tetrahydrobenzo[f][1,4]oxazepine-5-carboxylic acid tert-butylamide] | > 10 | –
CC(CCC(=O)NCC(=O)O)C1CCC2C3CCC4CC(O)CCC4(C)C3CC(O)C12C (stereo not drawn) [GDC, glycodeoxycholic acid] | – | reduction of glucose concentration in plasma ([2]; GDC 5 mmol gel rectally + Sitagliptin 30 mg/kg perorally 15 min before): 20%; reduction of glucose concentration in plasma ([2]; GDC 50 mmol gel rectally + Sitagliptin 30 mg/kg perorally 15 min before): 24%; weight change of animals [3]: effectively and statistically-valid reduced weights of experimental animals
N[C@@H](CC(=O)N1CCn2c(nnc2C(F)(F)F)C1)Cc1cc(F)c(F)cc1F [Sitagliptin, reference compound] | – | lowering of glucose level in blood plasma ([2]; Sitagliptin alone (vehicle gel + Sitagliptin 30 mg/kg)): 5-10%

Continued, in another order:

EC50 [1] [µM] | SMILES | other results
< 1 | O=C(NC1CCCCC1)C1c2cc(C(F)(F)F)ccc2OCCN1Cc1cccc(-c2ccccc2)c1 (stereo not drawn) [Compound 15, 4-(3-phenylbenzyl)-7-trifluoromethyl-2,3,4,5-tetrahydrobenzo[f][1,4]oxazepine-5-carboxylic acid cyclohexylamide] | –
< 1 | CC(C)(C)NC(=O)C1c2cc(F)ccc2OCCN1Cc1ccccc1-c1ccc(F)cc1 (stereo not drawn) [Compound 50, 4-[2-(4-fluorophenyl)benzyl]-7-fluoro-2,3,4,5-tetrahydrobenzo[f][1,4]oxazepine-5-carboxylic acid tert-butylamide] | –
> 10 | O=C(NC1CCCC1)C1c2cc(C(F)(F)F)ccc2OCC(=O)N1Cc1cccc(-c2ccccc2)c1 (stereo not drawn) [Compound 81, 4-(3-phenylbenzyl)-3-oxo-7-trifluoromethyl-2,3,4,5-tetrahydrobenzo[f][1,4]oxazepine-5-carboxylic acid cyclopentylamide] | –
